# Measured values as given in US20230310388A1, “Methods and Compositions for Treating Fungal Infections” (Neoculi Pty Ltd, priority 2020, published 2023).
# Where “and” joins values, the source holds several entries; their conditions need not be identical. Equal values may be shown once.
# Test system: Candida albicans ATCC14053
# Assay: Broth micro-dilution screen at 16 μg/mL and MIC (Example 9)
# Format: cell-based
# Conditions: C. albicans ATCC14053; test range 0.25-64 μg/mL; duplicate
# Procedure: The antifungal activity of 201 NCL analogs against Candida albicans ATCC14053 in vitro was investigated. A broth micro-dilution method was used, according to CLSI guidelines as described. NCL analogs were dissolved in DMSO and originally screened at a single concentration of 16 μg/mL.
row,Structure (SMILES),MIC
1,Cl.N=C(NN=Cc1ccc(F)cc1)NN=Cc1ccc(F)cc1 [NCL021],0.5 µg/mL and 1 µg/mL
2,COc1ccc(C=NNC(=N)NN=Cc2ccc(OC)cc2)cc1.Cl [NCL027],8 µg/mL and 16 µg/mL
3,Cc1ccc(C=NNC(=N)NN=Cc2ccc(C)cc2)cc1.Cl [NCL038],2 µg/mL and 4 µg/mL
4,Cc1ccccc1/C=N/NC(=N)N/N=C/c1ccccc1C.Cl [NCL039],4 µg/mL and 8 µg/mL
5,Cc1cccc(C=NNC(=N)NN=Cc2cccc(C)c2)c1.Cl [NCL040],8 µg/mL and 16 µg/mL
6,Cl.N=C(NN=Cc1cccc(Cl)c1)NN=Cc1cccc(Cl)c1 [NCL054],4 µg/mL and 8 µg/mL
7,Cl.N=C(NN=Cc1ccc(O)c(O)c1O)NN=Cc1ccc(O)c(O)c1O [NCL105],2 µg/mL and 4 µg/mL
8,Cl.N=C(NN=Cc1ccccc1O)NN=Cc1ccccc1O [NCL107],2 µg/mL and 4 µg/mL

# Same assay, conditions: single concentration 16 μg/mL; Growth or No growth of C. albicans ATCC14053
row,Structure (SMILES),Screen at 16 μg/mL
1,O=C(NN=Cc1ccc(Cl)cc1)NN=Cc1ccc(Cl)cc1 [NCL001],Growth
2,O=C(NN=Cc1ccccc1Cl)NN=Cc1ccccc1Cl [NCL002],Growth
3,COc1ccc(C=NNC(=O)NN=Cc2ccc(OC)cc2)cc1 [NCL006],Growth
4,N#Cc1ccc(C=NNC(=O)NN=Cc2ccc(C#N)cc2)cc1 [NCL007],Growth
5,COc1cccc(C=NNC(=O)NN=Cc2cccc(OC)c2)c1 [NCL010],Growth
6,O=C(NN=Cc1cccc(C(F)(F)F)c1)NN=Cc1cccc(C(F)(F)F)c1 [NCL011],Growth
7,O=C(NN=Cc1ccc(C(F)(F)F)cc1)NN=Cc1ccc(C(F)(F)F)cc1 [NCL012],Growth
8,O=C(NN=Cc1ccccc1C(F)(F)F)NN=Cc1ccccc1C(F)(F)F [NCL013],Growth
9,Cl.N=C(N)NN=Cc1ccccc1Cl [NCL015],Growth
10,Cl.N=C(N)NN=Cc1ccccc1F [NCL016],Growth
11,Cl.N=C(N)NN=Cc1cccc(F)c1 [NCL017],Growth
12,Cc1ccccc1C=NNC(=O)NN=Cc1ccccc1C [NCL018],Growth
13,Cc1cccc(C=NNC(=O)NN=Cc2cccc(C)c2)c1 [NCL019],Growth
14,Cl.N=C(NN=Cc1ccc(F)cc1)NN=Cc1ccc(F)cc1 [NCL021],No growth
15,Cl.N=C(NN=Cc1ccccc1F)NN=Cc1ccccc1F [NCL022],Growth
16,Cl.N#Cc1cccc(C=NNC(=N)NN=Cc2cccc(C#N)c2)c1 [NCL026],Growth
17,COc1ccc(C=NNC(=N)NN=Cc2ccc(OC)cc2)cc1.Cl [NCL027],No growth
18,COc1ccccc1C=NNC(=N)NN=Cc1ccccc1OC.Cl [NCL028],Growth
19,COc1cccc(C=NNC(=N)NN=Cc2cccc(OC)c2)c1.Cl [NCL029],Growth

row,Structure (SMILES),Screen at 16 μg/mL
1,Cl.N=C(N)N/N=C/c1ccc(Cl)cc1 [NCL030],Growth
2,Cl.N#Cc1ccc(C=NNC(=N)N)cc1 [NCL031],Growth
3,Cl.N#Cc1cccc(C=NNC(=N)N)c1 [NCL033],Growth
4,Cl.N=C(NN=Cc1ccccc1C(F)(F)F)NN=Cc1ccccc1C(F)(F)F [NCL036],Growth
5,Cl.N=C(NN=Cc1cccc(C(F)(F)F)c1)NN=Cc1cccc(C(F)(F)F)c1 [NCL037],Growth
6,Cc1ccc(C=NNC(=N)NN=Cc2ccc(C)cc2)cc1.Cl [NCL038],No growth
7,Cc1ccccc1/C=N/NC(=N)N/N=C/c1ccccc1C.Cl [NCL039],No growth
8,Cc1cccc(C=NNC(=N)NN=Cc2cccc(C)c2)c1.Cl [NCL040],No growth
9,Cl.N=C(N)N/N=C/c1ccc(C(F)(F)F)cc1 [NCL041],Growth
10,Cl.N=C(N)NN=Cc1ccccc1C(F)(F)F [NCL042],Growth
11,Cl.N=C(N)NN=Cc1cccc(C(F)(F)F)c1 [NCL043],Growth
12,Cc1ccc(/C=N/NC(=N)N)cc1.Cl [NCL044],Growth
13,Cc1ccccc1C=NNC(=N)N.Cl [NCL045],Growth
14,Cc1cccc(C=NNC(=N)N)c1.Cl [NCL046],Growth
15,Cl.N=C(N)NN=Cc1cccc(Cl)c1 [NCL052],Growth
16,Cl.N=C(N)NN=Cc1ccc(F)cc1 [NCL053],Growth
17,Cl.N=C(NN=Cc1cccc(Cl)c1)NN=Cc1cccc(Cl)c1 [NCL054],No growth
18,CC(=NNC(=N)NN=C(C)c1ccc(C(F)(F)F)cc1)c1ccc(C(F)(F)F)cc1.Cl [NCL061],Growth
19,Cl.N=C(NN=Cc1ccc2ccccc2c1)NN=Cc1ccc2ccccc2c1 [NCL093],Growth

row,Structure (SMILES),Screen at 16 μg/mL
1,Cl.N=C(NN=Cc1ccoc1)NN=Cc1ccoc1 [NCL095],Growth
2,Cl.N=C(NN=CC=Cc1ccccc1)NN=CC=Cc1ccccc1 [NCL096],Growth
3,Cl.N=C(NN=Cc1cccc(C(=O)O)c1)NN=Cc1cccc(C(=O)O)c1 [NCL098],Growth
4,CC(C)(C)c1ccc(/C=N/NC(=N)N/N=C/c2ccc(C(C)(C)C)cc2)cc1.Cl [NCL099],Growth
5,Cl.N=C(NN=Cc1ccccc1)NN=Cc1ccccc1 [NCL100],Growth
6,Cl.N=C(NN=Cc1cccc(O)c1O)NN=Cc1cccc(O)c1O [NCL101],No growth
7,Cl.N=C(NN=Cc1ccccc1[N+](=O)[O-])NN=Cc1ccccc1[N+](=O)[O-] [NCL102],Growth
8,Cl.N=C(NN=Cc1cc(O)c(O)cc1O)NN=Cc1cc(O)c(O)cc1O [NCL104],Growth
9,Cl.N=C(NN=Cc1ccc(O)c(O)c1O)NN=Cc1ccc(O)c(O)c1O [NCL105],No growth
10,COc1cc(C=NNC(=N)NN=Cc2cc(O)c(O)c(OC)c2)cc(O)c1O.Cl [NCL106],Growth
11,Cl.N=C(NN=Cc1ccccc1O)NN=Cc1ccccc1O [NCL107],No growth
12,Cl.N=C(NN=Cc1cccc(O)c1)NN=Cc1cccc(O)c1 [NCL108],Growth
13,Cl.N=C(NN=Cc1cccc([N+](=O)[O-])c1)NN=Cc1cccc([N+](=O)[O-])c1 [NCL109],Growth
14,N=C(N/N=C/c1ccc(-c2ccccc2)cc1)N/N=C/c1ccc(-c2ccccc2)cc1 [NCL112],Growth
15,Cl.N=C(NN=Cc1ccccc1-c1ccccc1)NN=Cc1ccccc1-c1ccccc1 [NCL116],Growth
16,COc1cc(C=NNC(=N)NN=Cc2ccc(O)c(OC)c2)ccc1O.Cl [NCL117],Growth
17,Cl.N=C(NN=Cc1cc(F)ccc1F)NN=Cc1cc(F)ccc1F [NCL118],Growth
18,CC(=O)Nc1ccc(C=NNC(=N)NN=Cc2ccc(NC(C)=O)cc2)cc1.Cl [NCL119],Growth
19,CC(C)c1ccc(C=NNC(=N)NN=Cc2ccc(C(C)C)cc2)cc1.Cl [NCL120],Growth
